Assay results as given in patent US20110301142A1, “ANTAGONISTS OF LYSOPHOSPHATIDIC ACID RECEPTORS” (priority 2008, published 2011).

Key:
human LPA1 = target: T1, human LPA1 (Homo sapiens, UniProt Q92633); assay: LPA1 calcium flux assay (HLPA1 Ca Flux); assay type: cell-based; details: Human LPA1 expressing CHO cells, stimulated with 10 nM LPA
T1 construct: the full-length cDNA for human LPA1 was obtained by PCR of the reverse transcription reaction; expressed in transfected cells
How it was run: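 Compounds were fitted for IC50 from inhibition of the intracellular calcium rise evoked by 10 nM LPA. Test system: dye-loaded CHO cells stably transfected with human LPA1, serum-free overnight, with 30 min compound pretreatment at room temperature before stimulation.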

human LPA3 = target: T2, human LPA3 (Homo sapiens, UniProt Q9UBY5); assay: LPA3 calcium flux assay; assay type: cell-based; details: Human LPA3 expressing CHO cells, stimulated with 10 nM LPA; read-out: HLPA3 Ca Flux IC50
T2 construct: The full-length cDNA fragment for human LPA3 was obtained by PCR from the vector; expressed in transfected cells; cDNA from the Missouri S&T cDNA Resource Center
T2 sequence (Q9UBY5 1-353): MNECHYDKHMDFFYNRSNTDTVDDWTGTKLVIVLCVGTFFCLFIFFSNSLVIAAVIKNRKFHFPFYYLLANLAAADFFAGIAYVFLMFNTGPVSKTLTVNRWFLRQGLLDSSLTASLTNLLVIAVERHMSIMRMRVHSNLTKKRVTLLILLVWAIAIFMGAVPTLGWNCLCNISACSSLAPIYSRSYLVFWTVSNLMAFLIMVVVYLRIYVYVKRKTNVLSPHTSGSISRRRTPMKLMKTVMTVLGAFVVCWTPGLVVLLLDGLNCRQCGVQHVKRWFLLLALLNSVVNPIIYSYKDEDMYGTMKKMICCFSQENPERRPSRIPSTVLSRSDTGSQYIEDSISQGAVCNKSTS
How it was run: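 Stably transfected CHO cells, serum-starved overnight, loaded with Calcium 4 dye 1 h at 37 °C in HBSS/20 mM Hepes with 0.3% fatty-acid-free HSA. Compounds preincubated 30 min at room temperature, then cells stimulated with 10 nM LPA; intracellular Ca2+ read by fluorescence; IC50 from titration curves.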

Female CD-1 mice = assay: Bleomycin-induced lung fibrosis model in mice; assay type: in vivo
Source text: Female CD-1 mice (Harlan, 25-30 g) are housed 4 per cage, given free access to food and water and allowed to acclimate for at least 7 days prior to test initiation. After the habituation phase, mice are lightly anesthetized with isoflurane (5% in 100% O2) and administered with bleomycin sulfate (0.01-5 U/kg, Henry Schein) via intratracheal instillation (Cuzzocrea S et al. Am J Physiol Lung Cell Mol. Physiol. 2007 May; 292(5):L1095-104. Epub 2007 Jan. 12.). Mice are returned to their cages and monitored daily for the duration of the experiment. Test compound or vehicle is delivered po, ip or sc daily. The route and frequency of dosing is based on previously determined pharmacokinetic properties. All animals are sacrificed using inhaled isoflurane 3, 7, 14, 21 or 28 days after bleomycin instillation. Following sacrifice, mice are intubated with a 20 gauge angiocatheter attached to a 1 ml syringe. Lungs are lavaged with saline to obtain bronchoalveolar lavage fluid (BALF) and then removed and fixed in 10% neutral buffered formalin for subsequent histopathological analysis. BALF is centrifuged for 10 min at 800×g to pellet the cells and the cell supernatant removed and frozen at −80° C. for subsequent protein analysis using the DC protein assay kit (Biorad, Hercules, Calif.) and soluble collagen analysis using Sircol (Biocolor Ltd, UK). BALF is analyzed for concentrations of inflammatory, pro-fibrotic and tissue injury biomarkers including transforming growth factor β1, hyaluronic acid, tissue inhibitor of metalloproteinase-1, matrix matelloproteinase-7, connective tissue growth factor and lactate dehydrogenase activity, using commercially available ELISA. The cell pellet is re-suspended in PBS. Total cell counts are then obtained using a Hemavet hematology system (Drew Scientific, Wayne, Pa.) and differential cells counts are determined using Shandon cytospin (Thermo Scientific, Waltham, Mass.). Lung tissue is stained using hematoxylin and eosin (H&E) and trichrome and lung fibrosis.is determined by semiquantitative histopathological scoring (Ashcroft T. et al. J. Clin. Path. 1988; 41; 4, 467-470.) using light microscopy (10× magnification) and quantitative, computer-assisted densitometry of collagen in lung tissue sections using light microscopy. The data are plotted using Graphpad prism and statistical differences between groups determined.

[1] = chronic setting (14 and 28 day), single bleomycin (1.5 units/kg) instillation
[2] = chronic setting, repeated bleomycin (3.0-5.0 units/kg/week) instillations
[3] = chronic setting (14-days only), single bleomycin instillation (3.0 units)

T1 sequence (Q92633 whole entry): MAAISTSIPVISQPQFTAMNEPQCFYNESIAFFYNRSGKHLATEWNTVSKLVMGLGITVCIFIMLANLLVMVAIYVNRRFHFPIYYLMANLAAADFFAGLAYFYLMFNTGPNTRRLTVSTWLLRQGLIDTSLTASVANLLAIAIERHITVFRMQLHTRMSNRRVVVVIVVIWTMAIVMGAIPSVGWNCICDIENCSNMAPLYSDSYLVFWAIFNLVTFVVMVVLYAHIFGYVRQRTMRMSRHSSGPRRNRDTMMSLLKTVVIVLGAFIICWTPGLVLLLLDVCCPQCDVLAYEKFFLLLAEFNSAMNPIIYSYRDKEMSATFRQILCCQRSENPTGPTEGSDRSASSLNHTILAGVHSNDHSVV

Row | SMILES | IC50 (human LPA1) | IC50 (human LPA3) | efficacy at reducing lung tissue damage and fibrosis compared to pirfenidone (Female CD-1 mice; 14 day mouse bleomycin model) | MMP7 concentration in BALF (Female CD-1 mice; acute setting (3 day)) | TGFβ1 concentration in BALF (Female CD-1 mice; acute setting (3 day)) | hyaluronan concentration in BALF (Female CD-1 mice; acute setting (3 day)) | lactate dehydrogenase activity (LDH; tissue injury marker) in BALF (Female CD-1 mice; acute setting (3 day)) | tissue inhibitor of metalloproteinase-1 (TIMP-1; pro-fibrotic marker) concentration in BALF (Female CD-1 mice; acute setting (3 day)) | total protein in broncheoalveolar lavage fluid (BALF) (Female CD-1 mice; acute setting (3 day)) | fibrosis (Female CD-1 mice; [1]) | inflammatory cell influx (Female CD-1 mice; [1]) | mouse body weight (Female CD-1 mice; [1]) | lung fibrosis (Female CD-1 mice; [2]) | pulmonary resistance (Female CD-1 mice; [2]) | lactate in the BALF (Female CD-1 mice; acute setting (3-day)) | fibrosis (Female CD-1 mice; [3]) | inflammatory cell influx (Female CD-1 mice; [3])
1 | Cc1noc(-c2ccc(-c3ccc(CC(=O)O)cc3)cc2)c1NC(=O)O[C@H](C)c1ccccc1Cl [Compound 1-88, (4′-{4-[(R)-1-(2-Chloro-phenyl)-ethoxycarbonylamino]-3-methyl-isoxazol-5-yl}-biphenyl-4-yl)-acetic acid] | < 300 nM | 1000 to 50000 nM | superior efficacy to pirfenidone | significantly reduced | significantly reduced | significantly reduced | significantly reduced | significantly reduced | significantly reduced | decreased | decreased | maintained | decreased | decreased |  |  | 
2 | Cc1noc(-c2ccc(-c3ccc(CC(=O)O)cc3)cc2)c1NC(=O)O[C@H](C)c1ccccc1 [Compound 1-115] | < 300 nM | 1000 to 50000 nM |  |  |  |  |  | reduced | reduced |  |  |  |  |  | reduced | decreased | decreased
